Among the data in patent US20020037872A1, “N6 heterocyclic 5' modified adenosine derivatives” (CV Therapeutics, Inc., priority 1999, published 2002) are Emax and Ki values, retold here.

The target of one experiment is T1, A1 adenosine receptor (Mesocricetus auratus, UniProt A0A1U8BVR4).
T1 construct: endogenous in cells; host or cells: DDT1 (DDT1 MF-2) hamster vas deferens smooth muscle cells
T1 sequence (A0A1U8BVR4 1-326): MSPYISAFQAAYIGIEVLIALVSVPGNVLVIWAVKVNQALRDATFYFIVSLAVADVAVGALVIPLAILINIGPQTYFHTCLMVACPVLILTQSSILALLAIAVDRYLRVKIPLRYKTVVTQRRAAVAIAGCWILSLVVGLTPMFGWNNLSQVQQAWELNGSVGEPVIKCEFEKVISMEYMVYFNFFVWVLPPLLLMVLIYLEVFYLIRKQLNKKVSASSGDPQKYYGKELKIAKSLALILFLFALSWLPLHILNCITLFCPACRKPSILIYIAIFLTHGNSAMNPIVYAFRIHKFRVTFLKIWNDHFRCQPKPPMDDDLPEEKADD
Nature of the experiment: [35S]GTPγS binding assay, A1-agonist stimulated. In kind it is biochemical, hamster. Particulars: […], agonist stimulated [35S]GTPγS binding, CPA = 100%. The procedure:
(§1) Attached cells were washed twice with HBSS (2×10 ml), scraped free of the plate with the aid of a rubber policeman in 5 ml of 50 mM Tris-HCI buffer pH 7.4 at 4° C. and the suspension homogenized for 10 s. The suspension was then centrifuged at 27,000×g for 10 min. The pellet was resuspended in homogenization buffer by vortexing and centrifuged as described above. The final pellet was resuspended in 1 vol of 50 mM Tris-HCI buffer pH 7.4 containing 5 mM MgCl2 for A1 AdoR assays. For the [^35S]GTPγS binding assay the final pellet was resuspended in 50 mM Tris-HCI pH 7.4 containing 5 mM MgCl2, 100 mM NaCl and 1 mM dithiothreitol. This membrane suspension was then placed in liquid nitrogen for 10 min, thawed and used for assays. The protein content was determined by the method of Bradford (1976) using bovine serum albumin as standard.
A1-agonist stimulated [^35S]GTPγS binding was determined by a modification of the method described by Giersckik et al. (1991) and Lorenzen et al. (1993). […] Nonspecific binding was determined by the addition of 10 μM GTPγS. […] Previous reports have shown that agonist stimulated [^35S]GTPγS binding was dependent on the presence of GDP (Gierschik et al., 1991; Lorenzen et al., 1993; Traynor & Nahorski, 1995). […] In saturation experiments, 0.5 nM [^35S]GTPγS was incubated with 0.5-1000 nM GTPγS. At the end of the incubation, each suspension was filtered and the retained radioactivity determined as described above.
(GTPγS resists hydrolysis and so accumulates on activated G proteins.)

In the next experiment the target is T2, A1 receptor (Mesocricetus auratus, UniProt A0A1U8BVR4).
T2 construct: endogenous in cells; host or cells: DDT1 (DDT1 MF-2) hamster vas deferens smooth muscle cells
T2 sequence (A0A1U8BVR4 1-326): T1 sequence (A0A1U8BVR4 1-326)
Nature of the experiment: Competitive binding assay, DDT1 cell membranes, [3H]CCPA. The arrangement: species or system hamster. Conditions: [3H]CCPA 2 nM. The procedure:
Cells were subcultured twice weekly by dispersion in Hank's Balanced Salt Solution (HBSS) without the divalent cations and containing 1 mM EDTA. The cells were then seeded in growth medium at a density of 1.2×10^5 cells per plate and experiments were performed 4 days later at approximately one day preconfluence.
as §1, with “assays.” for “assays. The protein content was determined by the method of Bradford (1976) using bovine serum albumin as standard.”
Competitive Binding Assay Pig striatum were prepared by homogenation in 50 mM Tris buffer (5× volume of tissue mass pH=7.4). After centrifilgation at 19,000 rpm for 25 minutes at 4° C., the supernatant was discarded, and the process was repeated twice. Compositions of this invention were assayed to determine their affinity for the A1 receptor in a pig striatum membrane prep or a DDT, membrane prep. Briefly, 0.2 mg of pig striatal membranes or DDT, cell membranes were treated with adenosine deaminase and 50 mM Tris buffer (pH=7.4) followed by mixing. To the pig membranes was added 2 μL of serially diluted DMSO stock solution of the compounds of this invention at concentrations ranging from 100 microM to 10 nM. The control received 2 microL of DMSO alone, then the antagonist [^3H] 8-cyclopentylxanthine (CPX) for pig striatum or the agonist [^3H] 2-chloro-6-cyclopentyladenosine (CCPA) for DDT, membranes in Tris buffer (50 mnM, pH of 7.4) was added to achieve a final concentration of 2 nM. After incubation at 23 C for 2 h, the solutions were filtered using a membrane harvester using multiple washing of the membranes (3×). The filter disks were counted in scintillation cocktail affording the amount of displacement of triated CPX or by the competitive binding compositions of this invention. In the case of the DDT1 cell membranes, some of the determinations of binding affinity (Ki) were made in the presence of Gpp(NH)p as noted in Table 1 (note: Gpp(NH)p shifts the receptor to a low affinity form). Greater than a 5 point curve was used to generate Ki's and the number of experiments is indicated in the column marked in Table 1 below.

[1] abbreviates: DDT1 cell membranes, read-out: Ki-DDT1 cell membrane.
Where [2] appears, read: in presence of Gpp(NH)p (low affinity form), read-out: Ki - DDT1 cell membrane In presence of Gpp (NH)p.

Read-outs that look alike come from different tables or passages of the source.

A word on the Emax: it is the greatest response seen or fitted, relative to the assay's reference. A word on the Ki: it is a dissociation constant, usually derived from enzyme kinetics or from competition with a known ligand.

Regarding `CNC(=O)OC[C@H]1O[C@@H](n2cnc3c(N[C@@H]4CCOC4)nc(Cl)nc32)[C@H](O)[C@@H]1O` [Compound 13, [(5-{6-[((3R)oxolan-3-yl)amino]-2-chloropurin-9-yl}(3S,2R,4R,5R)3,4dihydroxyoxolan-2-yl)methoxy]-N-methylcarboxamide], on A1 adenosine receptor, the Emax turned out to be 77%. On A1 receptor (setting [1]), the Ki was 129 nM. Take `CNC(=O)SC[C@H]1O[C@@H](n2cnc3c(N[C@@H]4CCOC4)ncnc32)[C@H](O)[C@@H]1O` [Compound 22, [(5-{6-[((3R)oxolan-3-yl)amino]purin-9-yl}(2S,3S,4R,5R)-3,4&hydroxyoxolan-2-yl)methythio]-N-methylcarboxamide]: the Emax at A1 adenosine receptor was 98%. For the same molecule, the inhibition constant Ki on A1 receptor (setting [1]) is 36 nM.

With `CCNC(=O)OC[C@H]1O[C@@H](n2cnc3c(N[C@@H]4CCOC4)ncnc32)[C@H](O)[C@@H]1O` [Compound 25, [(5-{6-[((3R)oxolan-3-yl)amino]purin-9-yl}(3S,2R,4R,5R)-3,4-dihydroxyoxolan-2-yl)methoxy]-N-ethylcarboxamide], the inhibition constant Ki on A1 receptor (setting [2]) came to 727 nM.

At A1 adenosine receptor, `CCCNC(=O)OCC1OC(n2cnc3c(N[C@@H]4CCOC4)ncnc32)C(O)C1O` (stereo partly shown) [Compound 26] registered an Emax of 73%. The Ki at A1 receptor (setting [2]) stood at 513 nM. Molecule `CCCCNC(=O)OCC1OC(n2cnc3c(N[C@@H]4CCOC4)ncnc32)C(O)C1O` (stereo partly shown) [Compound 27] showed a maximum response (Emax) on A1 adenosine receptor of 44%. Besides, the inhibition constant (Ki) turned out to be 1610 nM at A1 receptor (setting [1]) and 111 nM on A1 receptor (setting [2]). Consider `O=C(NC1CCCC1)OCC1OC(n2cnc3c(N[C@@H]4CCOC4)ncnc32)C(O)C1O` (stereo partly shown) [Compound 28], for which the figures for the Ki on A1 receptor (setting [1]) and on A1 receptor (setting [2]) were 32 nM and 808 nM, respectively. Regarding `O=C(NCc1ccccc1)OC[C@H]1O[C@@H](n2cnc3c(N[C@@H]4CCOC4)ncnc32)[C@H](O)[C@@H]1O` [Compound 29, [(5-{6-[((3R)oxolan-3-yl)amino]purin-9-yl}(3S,2R,4R,5R)-3,4dihydroxyoxolan-2-yl)methoxy]-N-benzylcarboxamide], the inhibition constant (Ki) at A1 receptor (setting [2]) was determined as 478 nM. Consider `O=C(NCc1ccc(F)cc1)OCC1OC(n2cnc3c(N[C@@H]4CCOC4)ncnc32)C(O)C1O` (stereo partly shown) [Compound 30], for which the Ki on A1 receptor (setting [1]) is 2210 nM; at A1 receptor (setting [2]), 1730 nM. Turning to `O=C(NC1CCCCC1)OC[C@H]1O[C@@H](n2cnc3c(N[C@@H]4CCOC4)ncnc32)[C@H](O)[C@@H]1O` [Compound 31, {(5-{6-[((3R)oxolan-3-yl)amino]purin-9-yl}(3S,2R,4R,5R)3,4-dihydroxyoxolan-2-yl)methoxy]-N-cyclohexylcarboxamide], on A1 receptor (setting [2]), the Ki stood at 1090 nM.

On A1 adenosine receptor, `CC(C)NC(=O)OCC1OC(n2cnc3c(N[C@@H]4CCOC4)ncnc32)C(O)C1O` (stereo partly shown) [Compound 32] showed an Emax of 91%. Moreover, the Ki at A1 receptor (setting [2]) amounted to 431 nM. Turning to `O=C(NC1CC1)OCC1OC(n2cnc3c(N[C@@H]4CCOC4)ncnc32)C(O)C1O` (stereo partly shown) [Compound 33], the Ki on A1 receptor (setting [2]) came out at 1710 nM. For `CN(C)C(=O)OC[C@H]1O[C@@H](n2cnc3c(N[C@@H]4CCOC4)ncnc32)[C@H](O)[C@@H]1O` [Compound 44, {(5-{6-[((3R)oxolan-3-yl)amino]purin-9-yl}(3S,2R,4R,5R)-3,4-dihydroxyoxolan-2-yl)methoxy]-N,N-dimethylcarboxamide], at A1 receptor (setting [2]), the Ki is 1840 nM. For the molecule `CNC(=S)OC[C@H]1O[C@@H](n2cnc3c(N[C@@H]4CCOC4)ncnc32)[C@H](O)[C@@H]1O` [Compound 45, 2-{6-[((3R)oxolan-3-yl)amino]purin-9-yl}(4S,2R,3R,5R)-5 {1(methylamino)thioxomethoxylmethyl}oxolane3,4diol], the Emax at A1 adenosine receptor was found to be 77%. Moreover, the Ki at A1 receptor (setting [2]) was found to be 141 nM.

`CCNC(=S)OC[C@H]1O[C@@H](n2cnc3c(N[C@@H]4CCOC4)ncnc32)[C@H](O)[C@@H]1O` [Compound 46, 2-{6[((3R)oxolan-3-yl)amino]purin-9-yl}(4S,2R,3R,5R)-5-{[(ethylamino)thioxomethoxy]methyl}oxolane3,4diol]: on A1 adenosine receptor, the Emax was 77%. On A1 receptor (setting [2]), the inhibition constant Ki worked out at 135 nM. The matching figures for `CC(C)NC(=S)OC[C@H]1O[C@@H](n2cnc3c(N[C@@H]4CCOC4)ncnc32)[C@H](O)[C@@H]1O` [Compound 47, 2-{6-[((3R)oxolan-3-yl)amino]purin-9-yl}(4S,2R,3R,5R)-5({[(methylethyl)amino]thioxomethoxy}methyl)oxolane3,4-diol]: 84% and 109 nM.

Regarding `CCCCNC(=S)OCC1OC(n2cnc3c(N[C@@H]4CCOC4)ncnc32)C(O)C1O` (stereo partly shown) [Compound 48], the Emax on A1 adenosine receptor was determined as 70%. The Ki on A1 receptor (setting [2]) came out at 926 nM. `CCCNC(=S)OC[C@H]1O[C@@H](n2cnc3c(N[C@@H]4CCOC4)ncnc32)[C@H](O)[C@@H]1O` [Compound 49, 2-{6-[((3R)oxolan-3-yl)amino]purin-9-yl}(4S,2R,3R,5R)-5 {[(propylamino)thioxomethoxy]methyl}oxolane3,4-diol] yielded an Emax at A1 adenosine receptor of 89%. Moreover, the inhibition constant Ki at A1 receptor (setting [2]) was 145 nM. On to `OC1C(COC(=S)N2CCCCC2)OC(n2cnc3c(N[C@@H]4CCOC4)ncnc32)C1O` (stereo partly shown) [Compound 50], for which the Emax at A1 adenosine receptor was 88%. For the same molecule, the results for the inhibition constant Ki at A1 receptor (setting [1]) and on A1 receptor (setting [2]) were 642 nM and 1950 nM, respectively. In the case of `O[C@@H]1[C@H](O)[C@@H](COC(=S)NC2CCCC2)O[C@H]1n1cnc2c(N[C@@H]3CCOC3)ncnc21` [Compound 51, 2-{6-[((3R)oxolan-3-yl)amino]purin-9-yl}(4S,2R,3R,5R)-5{[(cyclopentylamino)thioxomethoxy]methyl}oxolane3,4-diol], at A1 receptor (setting [2]), the Ki amounted to 87 nM. For `O=C(O)CNC(=O)OC[C@H]1O[C@@H](n2cnc3c(N[C@@H]4CCOC4)ncnc32)[C@H](O)[C@@H]1O` [Compound 68, 2-{[(5-{6-[((3R)oxolan-3-yl)amino]purin-9-yl}(3S,2R,4R,5R)-3,4-dihydroxyoxolan-2-yl)methoxy]carbonylamino}acetic acid], the Emax at A1 adenosine receptor was 76%.

On to `O=C(NC[C@H]1O[C@@H](n2cnc3c(N[C@@H]4CCOC4)ncnc32)[C@H](O)[C@@H]1O)NC1CCCC1` [Compound 76, N-[(5-{6[((3R)oxolan-3yl)amino]purin-9-yl}(3S,2R,4R,5R)3,4-dihydroxyoxolan-2-yl)methyl](cyclopentylamino)carboxamide], for which the Ki at A1 receptor (setting [1]) is 11600 nM. On to `CCNC(=O)NCC1OC(n2cnc3c(NC4CCOC4)ncnc32)C(O)C1O` [Compound 79, N-[(5-{16[((3R)oxolan-3-yl)amino]purin-9-yI}(3S,2R,4R,5R3,4-dihydroxyoxolan-2-yl)methyl](ethylamino)carboxamide], for which the inhibitory constant (Ki) on A1 receptor (setting [2]) is 167 nM.
